Where two headings read alike, the source gives them in different places.
Assays:
[1] = molecular target: T1, FGFR2 (N549H) (Homo sapiens, UniProt P21802, N549H); assay: fluorescent ELISA assay for inhibitors of FGFR2 kinase; format: biochemical; settings: Pyk2 peptide substrate, 60 minutes
T1 construct: purchased Millipore 14-742
Description: The enzymatic assays described herein are conducted according to the following procedures from commercially available reagents. In one non-limiting example, a fluorescent ELISA assay is used to identify and characterize inhibitors of FGFR2 kinase as described herein. This heterogeneous assay utilizes a biotinylated peptide with a tyrosine motif as a substrate and an anti-phospho-tyrosine antibody to measure phosphorylation of the substrate. The reaction is initiated by adding the test compound, 37 μM Pyk2 substrate (Midwest Biotech, Cat. #MBT2383), 12.5 μM ATP (Roche, Cat. #11 140 965 001) and 0.5 μM FGFR2 enzyme (Millipore, Cat. #14-742) sequentially to a non-binding polypropylene V-well plate. All reagents are in an assay buffer consisting of: 50 mM Tris-HCL, 0.02 mg/ml BSA, 10 mM MgCl2, 0.1 mM Na3VO4, 1 mM EGTA, 75 μM ATP, 0.01% NP-40, 2 mM DTT and 10% glycerol. The reaction is incubated for 60 minutes. As the reaction proceeds, FGFR2 phosphorylates tyrosines in the peptide. The reaction mixture is then moved to a blocked streptavidin-coated Nunc Maxisorb plate (coated with 100 ng streptavidin from Pierce (Cat. #15-124) per well), allowing for the capture of the biotinylated peptide. Peptides are captured for 30 minutes at room temperature, the phosphorylation of peptides continues during this phase. The reaction is stopped by washing the streptavidin-coated plate 6 times with TBST. Phosphorylated peptide is detected by adding anti-phospho-tyrosine antibody (Cell Signaling, Cat. #9411, diluted 1:3000) to the streptavidin-coated plate. Unbound anti-phospho-tyrosine antibody is removed by washing the streptavidin-coated plate 6 times with TBST. Secondary detection is performed using alkaline phosphatase tagged goat anti-mouse antibody (Pierce, Cat. #31320, diluted 1:4000) for one hour. Unbound secondary antibody is removed by washing the streptavidin-coated plate 6 times with TBST. The fluorescent readout is initiated by adding to the streptavidin-coated plate Promega Attophos substrate (Promega, Cat. #S1000, dilution=6 mg/10 ml), which, when dephosphorylated by alkaline phosphatase, emits a fluorescent signal of 595 nm in wavelength when excited by a signal of 400 nm in wavelength. The reading of the 595 nm signal is done on the Perkin Elmer Envision system. Compounds which prevent FGFR2 from phosphorylating the peptide result in a lower fluorescent signal. The 595 nm fluorescent signal is directly proportional to the activity of FGFR2. Thus, the inhibition of FGFR2 by compounds is monitored by the decrease in the 595 nm fluorescent signal.

[2] = test system: cancer cells; assay: MTS cell growth inhibition assay (72 hours); format: cell-based
In short: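 Growth inhibition read as formazan absorbance at 492 nm after 4 h MTS/PMS, following 72 h compound exposure at 37 °C in 1% FBS DMEM (cells pre-seeded 18 h). IC50 = 50% absorbance reduction; inhibition graded in bands.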

[3] = Homo sapiens, DLD-1, 72 h, DLD-1 cells, read-out: DLD-1 MTS 72 hr at 10 μM
[4] = Homo sapiens, KATO III, 72 h, KATO III cells, read-out: KATO III MTS 72 hr at 10 μM
[5] = Homo sapiens, MDA-MB-231, 72 h, MDA-MB-231 cells, read-out: MDA-MB-231 MTS 72 hr at 10 μM
[6] = Homo sapiens, NCI-H1299, 72 h, NCI-H1299 cells, read-out: NCI-H1299 MTS 72 hr at 10 μM
[7] = PaCa-2, 72 h, PACA-2 cells, read-out: PACA-2 MTS 72 hr at 10 μM

T1 sequence (P21802 22-821 N549H): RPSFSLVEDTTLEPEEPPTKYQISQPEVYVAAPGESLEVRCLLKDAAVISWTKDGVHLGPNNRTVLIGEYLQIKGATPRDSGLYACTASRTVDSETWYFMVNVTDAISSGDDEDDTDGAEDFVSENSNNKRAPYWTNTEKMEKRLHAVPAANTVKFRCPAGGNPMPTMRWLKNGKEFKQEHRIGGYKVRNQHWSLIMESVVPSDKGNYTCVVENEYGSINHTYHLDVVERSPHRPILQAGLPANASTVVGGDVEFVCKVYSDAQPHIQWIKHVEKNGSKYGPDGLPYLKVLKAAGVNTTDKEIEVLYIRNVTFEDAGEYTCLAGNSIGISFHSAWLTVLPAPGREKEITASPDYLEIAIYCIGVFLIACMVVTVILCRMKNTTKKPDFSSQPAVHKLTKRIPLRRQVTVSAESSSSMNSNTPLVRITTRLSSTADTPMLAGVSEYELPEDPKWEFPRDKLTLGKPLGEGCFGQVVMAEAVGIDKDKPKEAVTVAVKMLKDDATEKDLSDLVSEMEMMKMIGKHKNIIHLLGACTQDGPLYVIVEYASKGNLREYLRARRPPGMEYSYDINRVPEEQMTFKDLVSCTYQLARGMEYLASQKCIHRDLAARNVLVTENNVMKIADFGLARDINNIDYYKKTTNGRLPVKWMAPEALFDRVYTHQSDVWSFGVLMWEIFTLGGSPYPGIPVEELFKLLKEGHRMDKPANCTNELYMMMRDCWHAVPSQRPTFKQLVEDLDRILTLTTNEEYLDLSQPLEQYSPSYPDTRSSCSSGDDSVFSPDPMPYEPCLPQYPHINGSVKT

In the case of `Nc1nc(NC2Cc3ccccc3N(S(=O)(=O)c3cccc4cccnc34)C2)c2cn[nH]c2n1` (stereo not drawn) [Compound 28, N4-(1-(quinolin-8-ylsulfonyl)-1,2,3,4-tetrahydroquinolin-3-yl)-1H-pyrazolo[3,4-d]pyrimidine-4,6-diamine], the IC50 [1] is reported as 21.5 µM, the inhibition at 10 µM [2, 3] is reported as < 50% and the inhibition at 10 µM [2, 4] is reported as < 50%. The inhibition at 10 µM [2, 5] was < 50%, the inhibition at 10 µM [2, 6] was < 50% and the inhibition at 10 µM [2, 7] was < 50%.
For `Nc1nc(NC2Cc3ccccc3N(S(=O)(=O)c3cccc(F)c3)C2)c2cn[nH]c2n1` (stereo not drawn) [Compound 18, N4-(1-(3-fluorophenylsulfonyl)-1,2,3,4-tetrahydroquinolin-3-yl)-1H-pyrazolo[3,4-d]pyrimidine-4,6-diamine], the IC50 [1] was 0.37 µM, the inhibition at 10 µM [2, 3] was < 50% and the inhibition at 10 µM [2, 4] was < 50%. For the same compound, the inhibition at 10 µM [2, 5] was < 50%, the inhibition at 10 µM [2, 6] was < 50% and the inhibition at 10 µM [2, 7] was < 50%.
In the case of `Nc1nc(NC2Cc3ccccc3N(S(=O)(=O)c3cccc4nsnc34)C2)c2cn[nH]c2n1` (stereo not drawn) [Compound 17, N4-(1-(benzo[c][1,2,5]thiadiazol-4-ylsulfonyl)-1,2,3,4-tetrahydroquinolin-3-yl)-1H-pyrazolo[3,4-d]pyrimidine-4,6-diamine], the IC50 [1] is reported as 15.3 µM, the inhibition at 10 µM [2, 3] is reported as < 50% and the inhibition at 10 µM [2, 4] is reported as < 50%. The inhibition at 10 µM [2, 5] was < 50%, the inhibition at 10 µM [2, 6] was < 50% and the inhibition at 10 µM [2, 7] was < 50%.
`Nc1nc(NC2Cc3ccccc3N(S(=O)(=O)c3ccc(Cl)c(Cl)c3)C2)c2cn[nH]c2n1` (stereo not drawn) [Compound 39, N4-(1-(3,4-dichlorophenylsulfonyl)-1,2,3,4-tetrahydroquinolin-3-yl)-1H-pyrazolo[3,4-d]pyrimidine-4,6-diamine] was tested, and the IC50 [1] was 0.88 µM, the inhibition at 10 µM [2, 3] was < 50% and the inhibition at 10 µM [2, 4] was 50 to 79%. For the same compound, the inhibition at 10 µM [2, 5] was < 50%, the inhibition at 10 µM [2, 6] was < 50% and the inhibition at 10 µM [2, 7] was < 50%.
For `Nc1nc(NC2Cc3ccccc3N(CCc3ccc(Cl)cc3Cl)C2)c2cn[nH]c2n1` (stereo not drawn) [Compound 3, N^4-(1-(2-(2,4-dichlorophenyl)ethyl)-1,2,3,4-tetrahydroquinolin-3-yl)-1H-pyrazolo[3,4-d]pyrimidine-4,6-diamine], the IC50 [1] was 7.83 µM, the inhibition at 10 µM [2, 3] was > 79% and the inhibition at 10 µM [2, 4] was > 79%. For the same compound, the inhibition at 10 µM [2, 5] was > 79%, the inhibition at 10 µM [2, 6] was > 79% and the inhibition at 10 µM [2, 7] was > 79%.
For `COc1ccc(OC)c(CN2CC(Nc3nc(N)nc4[nH]ncc34)Cc3ccccc32)c1` (stereo not drawn) [Compound 121, N4-(1-(2,5-dimethoxybenzyl)-1,2,3,4-tetrahydroquinolin-3-yl)-1H-pyrazolo[3,4-d]pyrimidine-4,6-diamine], the IC50 [1] was > 30 µM, the inhibition at 10 µM [2, 3] was < 50% and the inhibition at 10 µM [2, 4] was > 79%. The inhibition at 10 µM [2, 5] was < 50%, the inhibition at 10 µM [2, 6] was < 50% and the inhibition at 10 µM [2, 7] was < 50%.
For `Nc1nc(NC2Cc3ccccc3N(Cc3ccc(F)cc3)C2)c2cn[nH]c2n1` (stereo not drawn) [Compound 6, N^4-(1-(4-fluorobenzyl)-1,2,3,4-tetrahydroquinolin-3-yl)-1H-pyrazolo[3,4-d]pyrimidine-4,6-diamine], the IC50 [1] was 0.9 µM, the inhibition at 10 µM [2, 3] was > 79% and the inhibition at 10 µM [2, 4] was > 79%. The inhibition at 10 µM [2, 5] was > 79%, the inhibition at 10 µM [2, 6] was > 79% and the inhibition at 10 µM [2, 7] was > 79%.
With `Cc1cccc(CN2CC(Nc3nc(N)nc4[nH]ncc34)Cc3ccccc32)c1` (stereo not drawn) [Compound 122, N4-[1-(3-methylbenzyl)-1,2,3,4-tetrahydroquinolin-3-yl]-1H-pyrazolo[3,4-d]pyrimidine-4,6-diamine] the IC50 [1] was 1.67 µM, the inhibition at 10 µM [2, 3] was < 50% and the inhibition at 10 µM [2, 4] was 50 to 79%. For the same compound, the inhibition at 10 µM [2, 5] was < 50%, the inhibition at 10 µM [2, 6] was < 50% and the inhibition at 10 µM [2, 7] was 50 to 79%.
`CC(C)c1ccc(S(=O)(=O)N2CC(Nc3nc(N)nc4[nH]ncc34)Cc3ccccc32)cc1` (stereo not drawn) [Compound 56, N4-(1-(4-isopropylphenylsulfonyl)-1,2,3,4-tetrahydroquinolin-3-yl)-1H-pyrazolo[3,4-d]pyrimidine-4,6-diamine] was tested, and the IC50 [1] was > 30 µM, the inhibition at 10 µM [2, 3] was < 50% and the inhibition at 10 µM [2, 4] was < 50%. The inhibition at 10 µM [2, 5] was < 50%, the inhibition at 10 µM [2, 6] was < 50% and the inhibition at 10 µM [2, 7] was < 50%.
In the case of `Nc1nc(NC2Cc3ccccc3N(Cc3cccc(F)c3)C2)c2cn[nH]c2n1` (stereo not drawn) [Compound 128, N4-[1-(3-fluorobenzyl)-1,2,3,4-tetrahydroquinolin-3-yl]-1H-pyrazolo[3,4-d]pyrimidine-4,6-diamine], the IC50 [1] is reported as 2.23 µM, the inhibition at 10 µM [2, 3] is reported as < 50% and the inhibition at 10 µM [2, 4] is reported as 50 to 79%. The inhibition at 10 µM [2, 5] was < 50%, the inhibition at 10 µM [2, 6] was < 50% and the inhibition at 10 µM [2, 7] was 50 to 79%.
For `Nc1nc(NC2Cc3ccccc3N(S(=O)(=O)c3cc(F)ccc3F)C2)c2cn[nH]c2n1` (stereo not drawn) [Compound 55, N4-(1-(2,5-difluorophenylsulfonyl)-1,2,3,4-tetrahydroquinolin-3-yl)-1H-pyrazolo[3,4-d]pyrimidine-4,6-diamine], the IC50 [1] was 0.19 µM, the inhibition at 10 µM [2, 3] was > 79% and the inhibition at 10 µM [2, 4] was 50 to 79%. The inhibition at 10 µM [2, 5] was 50 to 79%, the inhibition at 10 µM [2, 6] was < 50% and the inhibition at 10 µM [2, 7] was > 79%.
In the case of `Nc1nc(NC2Cc3ccccc3N(Cc3ccc(Cl)c(Cl)c3)C2)c2cn[nH]c2n1` (stereo not drawn) [Compound 7, N^4-(1-(3,4-dichlorobenzyl)-1,2,3,4-tetrahydroquinolin-3-yl)-1H-pyrazolo[3,4-d]pyrimidine-4,6-diamine], the IC50 [1] is reported as 3.97 µM, the inhibition at 10 µM [2, 3] is reported as > 79% and the inhibition at 10 µM [2, 4] is reported as > 79%. For the same compound, the inhibition at 10 µM [2, 5] was > 79%, the inhibition at 10 µM [2, 6] was > 79% and the inhibition at 10 µM [2, 7] was > 79%.
For `Nc1nc(NC2Cc3ccccc3N(S(=O)(=O)c3ccc(Br)cc3)C2)c2cn[nH]c2n1` (stereo not drawn) [Compound 37, N4-(1-(4-bromophenylsulfonyl)-1,2,3,4-tetrahydroquinolin-3-yl)-1H-pyrazolo[3,4-d]pyrimidine-4,6-diamine], the IC50 [1] was 3.6 µM, the inhibition at 10 µM [2, 3] was < 50% and the inhibition at 10 µM [2, 4] was < 50%. For the same compound, the inhibition at 10 µM [2, 5] was < 50%, the inhibition at 10 µM [2, 6] was < 50% and the inhibition at 10 µM [2, 7] was < 50%.
In the case of `Nc1nc(NC2Cc3ccccc3N(Cc3ccccc3)C2)c2cn[nH]c2n1` (stereo not drawn) [Compound 125, N4-(1-benzyl-1,2,3,4-tetrahydroquinolin-3-yl)-1H-pyrazolo[3,4-d]pyrimidine-4,6-diamine], the IC50 [1] is reported as 17.2 µM, the inhibition at 10 µM [2, 3] is reported as < 50% and the inhibition at 10 µM [2, 4] is reported as < 50%. For the same compound, the inhibition at 10 µM [2, 5] was < 50%, the inhibition at 10 µM [2, 6] was < 50% and the inhibition at 10 µM [2, 7] was < 50%.
With `Cc1noc(C)c1S(=O)(=O)N1CC(Nc2nc(N)nc3[nH]ncc23)Cc2ccccc21` (stereo not drawn) [Compound 15, N4-(1-(3,5-dimethylisoxazol-4-ylsulfonyl)-1,2,3,4-tetrahydroquinolin-3-yl)-1H-pyrazolo[3,4-d]pyrimidine-4,6-diamine] the IC50 [1] was > 30 µM, the inhibition at 10 µM [2, 3] was > 79% and the inhibition at 10 µM [2, 4] was > 79%. The inhibition at 10 µM [2, 5] was > 79%, the inhibition at 10 µM [2, 6] was > 79% and the inhibition at 10 µM [2, 7] was > 79%.
With `Nc1nc(NC2Cc3ccccc3N(S(=O)(=O)c3c(F)cccc3F)C2)c2cn[nH]c2n1` (stereo not drawn) [Compound 58, N4-(1-(2,6-difluorophenylsulfonyl)-1,2,3,4-tetrahydroquinolin-3-yl)-1H-pyrazolo[3,4-d]pyrimidine-4,6-diamine] the IC50 [1] was 13 µM, the inhibition at 10 µM [2, 3] was < 50% and the inhibition at 10 µM [2, 4] was < 50%. The inhibition at 10 µM [2, 5] was < 50%, the inhibition at 10 µM [2, 6] was < 50% and the inhibition at 10 µM [2, 7] was < 50%.
For `Nc1nc(NC2Cc3ccccc3N(S(=O)(=O)c3cccc4ccccc34)C2)c2cn[nH]c2n1` (stereo not drawn) [Compound 31, N4-(1-(naphthalen-1-ylsulfonyl)-1,2,3,4-tetrahydroquinolin-3-yl)-1H-pyrazolo[3,4-d]pyrimidine-4,6-diamine], the IC50 [1] was 3.35 µM, the inhibition at 10 µM [2, 3] was < 50% and the inhibition at 10 µM [2, 4] was > 79%. For the same compound, the inhibition at 10 µM [2, 5] was < 50%, the inhibition at 10 µM [2, 6] was < 50% and the inhibition at 10 µM [2, 7] was < 50%.

— US8273754B2, “Substituted 1H-pyrazolo[3,4-D]pyrimidine-6-amine compounds” (ArQule, Inc., priority 2008, dated 2012)
